Results: ChEMBL document CHEMBL5620394, “Synthesis of new antiproliferative 1,3,4-substituted-pyrrolo[3,2-c]quinoline derivatives, biological and in silico insights” (Eur J Med Chem, 2023)
The source made the active and inactive calls. The calls are words filed in the database; no cut-off is given here.

Columns and labels:
SNB-75 = experiment: Antiproliferative activity against human SNB-75 cells assessed as cell growth at 10 uM incubated for 48 hrs by sulforhodamine B assay relative to control; assay type: functional; details: read-out: Activity
CAKI-1 = experiment: Antiproliferative activity against human CAKI-1 cells assessed as cell growth at 10 uM incubated for 48 hrs by sulforhodamine B assay relative to control; assay type: functional; details: read-out: Activity
UACC-257 = experiment: Antiproliferative activity against human UACC-257 cells assessed as cell growth at 10 uM incubated for 48 hrs by sulforhodamine B assay relative to control; assay type: functional; details: read-out: Activity
RPMI-8226 = experiment: Antiproliferative activity against human RPMI-8226 cells assessed as cell growth at 10 uM incubated for 48 hrs by sulforhodamine B assay relative to control; assay type: functional; details: read-out: Activity
HL-60 = experiment: Antiproliferative activity against human HL-60 cells assessed as cell growth at 10 uM incubated for 48 hrs by sulforhodamine B assay relative to control; assay type: functional; details: read-out: Activity
CCRF-CEM = experiment: Antiproliferative activity against human CCRF-CEM cells assessed as cell growth at 10 uM incubated for 48 hrs by sulforhodamine B assay relative to control; assay type: functional; details: read-out: Activity
MCF7 [1] = experiment: Antiproliferative activity against human MCF7 cells assessed as cell growth at 10 uM incubated for 48 hrs by sulforhodamine B assay relative to control; assay type: functional; details: read-out: Activity
T47D = experiment: Antiproliferative activity against human T47D cells assessed as cell growth at 10 uM incubated for 48 hrs by sulforhodamine B assay relative to control; assay type: functional; details: read-out: Activity
PC-3 = experiment: Antiproliferative activity against human PC-3 cells assessed as cell growth at 10 uM incubated for 48 hrs by sulforhodamine B assay relative to control; assay type: functional; details: read-out: Activity
UACC-62 = experiment: Antiproliferative activity against human UACC-62 cells assessed as cell growth at 10 uM incubated for 48 hrs by sulforhodamine B assay relative to control; assay type: functional; details: read-out: Activity
HT-29 = experiment: Antiproliferative activity against human HT-29 cells assessed as cell growth at 10 uM incubated for 48 hrs by sulforhodamine B assay relative to control; assay type: functional; details: read-out: Activity
NCI-H226 = experiment: Antiproliferative activity against human NCI-H226 cells assessed as cell growth at 10 uM incubated for 48 hrs by sulforhodamine B assay relative to control; assay type: functional; details: read-out: Activity
SR = experiment: Antiproliferative activity against human SR cells assessed as cell growth at 10 uM incubated for 48 hrs by sulforhodamine B assay relative to control; assay type: functional; details: read-out: Activity
NCI-H522 = experiment: Antiproliferative activity against human NCI-H522 cells assessed as cell growth at 10 uM incubated for 48 hrs by sulforhodamine B assay relative to control; assay type: functional; details: read-out: Activity
786-0 = experiment: Antiproliferative activity against human 786-0 cells assessed as cell growth at 10 uM incubated for 48 hrs by sulforhodamine B assay relative to control; assay type: functional; details: read-out: Activity
MOLT-4 = experiment: Antiproliferative activity against human MOLT-4 cells assessed as cell growth at 10 uM incubated for 48 hrs by sulforhodamine B assay relative to control; assay type: functional; details: read-out: Activity
UO-31 = experiment: Antiproliferative activity against human UO-31 cells assessed as cell growth at 10 uM incubated for 48 hrs by sulforhodamine B assay relative to control; assay type: functional; details: read-out: Activity
MDA-MB-231 = experiment: Antiproliferative activity against human MDA-MB-231 cells assessed as cell growth at 10 uM incubated for 48 hrs by sulforhodamine B assay relative to control; assay type: functional; details: read-out: Activity
K562 = experiment: Antiproliferative activity against human K562 cells assessed as cell growth at 10 uM incubated for 48 hrs by sulforhodamine B assay relative to control; assay type: functional; details: read-out: Activity
LA-N-5 = experiment: Antiproliferative activity against human LA-N-5 cells assessed as reduction in cell growth at 10 to 100 uM incubated for 4 hrs by MTS assay; assay type: functional, cell-based; details: dose 10-100 µM
HCT-116 = experiment: Antiproliferative activity against human HCT-116 cells assessed as cell growth at 10 uM incubated for 48 hrs by sulforhodamine B assay relative to control; assay type: functional; details: read-out: Activity
KM12 = experiment: Antiproliferative activity against human KM12 cells assessed as cell growth at 10 uM incubated for 48 hrs by sulforhodamine B assay relative to control; assay type: functional; details: read-out: Activity
A549 = experiment: Antiproliferative activity against human A549 cells assessed as cell growth at 10 uM incubated for 48 hrs by sulforhodamine B assay relative to control; assay type: functional; details: read-out: Activity
SF-295 = experiment: Antiproliferative activity against human SF-295 cells assessed as cell growth at 10 uM incubated for 48 hrs by sulforhodamine B assay relative to control; assay type: functional; details: read-out: Activity
EKVX = experiment: Antiproliferative activity against human EKVX cells assessed as cell growth at 10 uM incubated for 48 hrs by sulforhodamine B assay relative to control; assay type: functional; details: read-out: Activity
LOX IMVI = experiment: Antiproliferative activity against human LOX IMVI cells assessed as cell growth at 10 uM incubated for 48 hrs by sulforhodamine B assay relative to control; assay type: functional; details: read-out: Activity
IGROV-1 = experiment: Antiproliferative activity against human IGROV-1 cells assessed as cell growth at 10 uM incubated for 48 hrs by sulforhodamine B assay relative to control; assay type: functional; details: read-out: Activity
HOP-62 = experiment: Antiproliferative activity against human HOP-62 cells assessed as cell growth at 10 uM incubated for 48 hrs by sulforhodamine B assay relative to control; assay type: functional; details: read-out: Activity
MDA-MB-468 = experiment: Antiproliferative activity against human MDA-MB-468 cells assessed as cell growth at 10 uM incubated for 48 hrs by sulforhodamine B assay relative to control; assay type: functional; details: read-out: Activity
HCT-15 = experiment: Antiproliferative activity against human HCT-15 cells assessed as cell growth at 10 uM incubated for 48 hrs by sulforhodamine B assay relative to control; assay type: functional; details: read-out: Activity
SK-OV-3 = experiment: Antiproliferative activity against human SK-OV-3 cells assessed as cell growth at 10 uM incubated for 48 hrs by sulforhodamine B assay relative to control; assay type: functional; details: read-out: Activity
ACHN = experiment: Antiproliferative activity against human ACHN cells assessed as cell growth at 10 uM incubated for 48 hrs by sulforhodamine B assay relative to control; assay type: functional; details: read-out: Activity
MDA-MB-435 = experiment: Antiproliferative activity against human MDA-MB-435 cells assessed as cell growth at 10 uM incubated for 48 hrs by sulforhodamine B assay relative to control; assay type: functional; details: read-out: Activity
MCF7 [2] = experiment: Antiproliferative activity against human MCF7 cells assessed as reduction in cell growth at 10 to 100 uM incubated for 4 hrs by MTS assay; assay type: functional, cell-based; details: dose 10-100 µM

SMILES	growth at 10 µM (SNB-75)	growth at 10 µM (CAKI-1)	growth at 10 µM (UACC-257)	growth at 10 µM (RPMI-8226)	growth at 10 µM (HL-60)	growth at 10 µM (CCRF-CEM)	growth at 10 µM (MCF7 [1])	growth at 10 µM (T47D)	growth at 10 µM (PC-3)	growth at 10 µM (UACC-62)	growth at 10 µM (HT-29)	growth at 10 µM (NCI-H226)	growth at 10 µM (SR)	growth at 10 µM (NCI-H522)	growth at 10 µM (786-0)	growth at 10 µM (MOLT-4)	growth at 10 µM (UO-31)	growth at 10 µM (MDA-MB-231)	growth at 10 µM (K562)	growth at 10 µM (HCT-116)	also measured
CCOC(=O)c1c(C)n(-c2ccccc2)c2c1c(-c1ccccc1)nc1ccccc12	80.4%	91%	94.7%	88.1%	89.1%	88.8%	85.1%	95.9%	74.5%	74.7%	100%	87%	89.9%	81.2%	86%	84.3%	80.8%	73.4%	86.4%		
CC(=O)c1c(C)n(-c2ccccc2)c2c1c(-c1ccc(C)o1)nc1ccccc12	93.8%	85.3%	90.8%	70.5%	63.4%	74.2%	88.4%	99.7%	69.6%	85.1%	68.4%	41%	80.3%	71.1%	93.6%	76.7%	79.1%	73.3%	71.6%		Activity (LA-N-5): Active
CC(=O)c1c(C)[nH]c2c1c(-c1cc3c(cc1Br)OCO3)nc1ccccc12	84%	95.6%	105%	96.9%		92%	70.2%	91.4%	85.5%			99.7%	74%	77%		83.8%	61.5%	88.2%	85.2%	98.9%	growth at 10 µM (KM12): 91%; growth at 10 µM (A549): 88.7%; growth at 10 µM (SF-295): 94.2%; growth at 10 µM (EKVX): 89.6%; growth at 10 µM (LOX IMVI): 89.3%; growth at 10 µM (IGROV-1): 82.5%; growth at 10 µM (HOP-62): 91.5%; growth at 10 µM (MDA-MB-468): 109%; growth at 10 µM (HCT-15): 97.2%; growth at 10 µM (SK-OV-3): 96.7%; growth at 10 µM (ACHN): 93%; growth at 10 µM (MDA-MB-435): 95.6%
CC(=O)c1c(C)[nH]c2c1c(-c1cc(Cl)cc(Cl)c1O)nc1ccccc12	72.8%	77.6%	118%	66.7%		58.2%	74%	61.9%	71.4%			87.4%	52.2%	70%		51.6%	56.8%	72%	74.8%	75.2%	growth at 10 µM (KM12): 75.1%; growth at 10 µM (A549): 83.5%; growth at 10 µM (SF-295): 74.1%; growth at 10 µM (EKVX): 72.8%; growth at 10 µM (LOX IMVI): 73.6%; growth at 10 µM (IGROV-1): 75.6%; growth at 10 µM (HOP-62): 79.9%; growth at 10 µM (MDA-MB-468): 89.7%; growth at 10 µM (HCT-15): 73.1%; growth at 10 µM (SK-OV-3): 75.2%; growth at 10 µM (ACHN): 71.2%; growth at 10 µM (MDA-MB-435): 85.6%
CC(=O)c1c(C)n(C)c2c1c(-c1ccccc1)nc1ccccc12	85.8%	87.2%	96.4%	79.4%	76.8%	92.7%	95.6%	98.9%	69.8%	87.8%	112%	88.4%	94.7%	95.6%	101%	89.4%	68.8%	94.3%	102%		Activity (MCF7 [2]): Active
CC(=O)c1c(C)n(CCCCl)c2c1c(-c1ccc3c(c1)OCO3)nc1ccccc12	69.4%	86.7%	102%	83.3%		77.1%	83.2%	71.5%	76.2%			115%	53.1%	63.7%		67.3%	85.4%	95.8%	71%	93.6%	growth at 10 µM (KM12): 87.3%; growth at 10 µM (A549): 81.7%; growth at 10 µM (SF-295): 76.7%; growth at 10 µM (EKVX): 86%; growth at 10 µM (LOX IMVI): 90%; growth at 10 µM (IGROV-1): 93.9%; growth at 10 µM (HOP-62): 96.7%; growth at 10 µM (MDA-MB-468): 101%; growth at 10 µM (HCT-15): 87%; growth at 10 µM (SK-OV-3): 97.2%; growth at 10 µM (ACHN): 84.4%; growth at 10 µM (MDA-MB-435): 93.6%
